Test results published in patent US20240041042A1, “1-(PYRIDYL)-5-AZINYLPYRAZOLE DERIVATIVES, AND THEIR USE FOR CONTROL OF UNDESIRED PLANT GROWTH” (Bayer Aktiengesellschaft, priority 2020, published 2024).
Like-named read-outs stand apart in the source and are kept apart here.

Key:
Assay type in all cases: in vivo
[1] = system: Alopecurus myosuroides (ALOMY); assay: Pre-emergence herbicidal action against ALOMY; conditions: scored visually after about 3 weeks, 100% = plants have died
Outline: (§1)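 Seeds sown in pots and covered with soil; WP or EC formulations sprayed onto the soil surface at 600 l/ha water with 0.5% additive, at 320 g/ha or lower. Greenhouse growth for about 3 weeks, then visual scoring as % effect against untreated controls (100% = plants dead).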

[2] = system: Amaranthus retroflexus (AMARE); assay: Pre-emergence herbicidal action against AMARE; conditions: visual scoring after about 3 weeks vs untreated controls
Outline: as §1

Avena fatua (AVEFA) [3] = assay: Pre-emergence herbicidal action against AVEFA; conditions: 320 g/ha, visual scoring after about 3 weeks vs untreated controls
Outline: as §1

[4] = system: Echinochloa crus-galli (ECHCG); assay: Pre-emergence herbicidal action against ECHCG
Outline: as §1

Lolium rigidum (LOLRI) [5] = assay: Pre-emergence herbicidal action against LOLRI
Outline: as §1

[6] = system: Matricaria inodora (MATIN); assay: Pre-emergence herbicidal action against MATIN
Outline: as §1

[7] = system: Pharbitis purpurea (PHBPU); assay: Pre-emergence herbicidal action against PHBPU
Outline: as §1

[8] = system: Polygonum convolvulus (POLCO); assay: Pre-emergence herbicidal action against POLCO
Outline: as §1

Setaria viridis (SETVI) [9] = assay: Pre-emergence herbicidal action against SETVI
Outline: as §1

[10] = system: Verconica persica (VERPE); assay: Pre-emergence herbicidal action against VERPE
Outline: as §1

Viola tricolor (VIOTR) [11] = assay: Pre-emergence herbicidal action against VIOTR
Outline: as §1

Oryza sativa (ORYSA) [12] = conditions: pre-emergence, 80 g/ha, crop plant compatibility, in comparison to untreated controls
Outline: (§2)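 Crop injury rated visually in percent against untreated plants roughly 3 weeks after treatment (0% no effect, 100% plants dead). Compounds, as WP or EC with 0.5% additive in 600 l/ha water, were applied to the covering soil right after sowing; greenhouse growth. Suffixes a, b, c denote different dosages.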

[13] = system: Abutilon theophrasti (ABUTH); assay: Post-emergence herbicidal action against ABUTH; conditions: visual rating about 3 weeks after treatment vs untreated controls (100% = plants have died, 0% = like control plants)
Outline: (§3)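 Values are percent visual activity (0% like control, 100% plants dead) after about 3 weeks in the greenhouse. Treatment: post-emergence spray at one-leaf stage, 600 l/ha spray volume, 0.5% additive, doses 320 g/ha or lower.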

[14] = system: Alopecurus myosuroides (ALOMY); assay: Post-emergence herbicidal action against ALOMY; conditions: visual rating about 3 weeks after treatment vs untreated controls (100% = plants have died, 0% = like control plants)
Outline: as §3

[15] = system: Amaranthus retroflexus (AMARE); assay: Post-emergence herbicidal action against AMARE
Outline: as §3

Avena fatua (AVEFA) [16] = assay: Post-emergence herbicidal action against AVEFA; conditions: visual rating about 3 weeks after treatment
Outline: as §3

[17] = system: Echinochloa crus-galli (ECHCG); assay: Post-emergence herbicidal action against ECHCG
Outline: as §3

[18] = system: Pharbitis purpurea (PHBPU); assay: Post-emergence herbicidal action against PHBPU
Outline: as §3

[19] = system: Polygonum convolvulus (POLCO); assay: Post-emergence herbicidal action against POLCO
Outline: as §3

Setaria viridis (SETVI) [20] = assay: Post-emergence herbicidal action against SETVI
Outline: as §3

[21] = system: Verconica persica (VERPE); assay: Post-emergence herbicidal action against VERPE
Outline: as §3

Viola tricolor (VIOTR) [22] = assay: Post-emergence herbicidal action against VIOTR
Outline: as §3

Oryza sativa (ORYSA) [23] = conditions: crop plant compatibility
Outline: (§4)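 One-leaf-stage crops (2–3 wk post-sowing, sandy loam, greenhouse) sprayed on green parts; 0.5% additive, 600 l/ha water. Rated by eye ~3 wk later, % vs untreated; suffixes a/b/c mark different dosages.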

Zea mays (ZEAMX) [24] = conditions: for Post-emergence action against ZEAMX in %: crop plant compatibility, 80 g/ha, effect vs untreated controls
Outline: as §4

[25] = system: Digitaria sanguinalis (DIGSA); assay: Pre-emergence herbicidal action against DIGSA; conditions: dosage 320 g/ha
Outline: as §1

Zea mays (ZEAMX) [26] = conditions: pre-emergence, 80 g/ha, crop plant compatibility, in comparison to untreated controls
Outline: as §2

[27] = system: Matricaria inodora (MATIN); assay: Post-emergence herbicidal action against MATIN; conditions: dosage 320 g/ha
Outline: as §3

[28] = system: Triticum aestivum (TRZAS); conditions: crop plant compatibility, 80 g/ha, effect vs untreated controls
Outline: as §4

Lolium rigidum (LOLRI) [29] = assay: Post-emergence herbicidal action against LOLRI
Outline: as §3

[30] = 320 g/ha, visual rating about 3 weeks after treatment
[31] = 80 g/ha, effect in comparison to untreated controls

SMILES	Pre-emergence action against ALOMY ([1]; 80 g/ha) [%]	Pre-emergence action against ALOMY ([1]; 320 g/ha) [%]	Pre-emergence action against AMARE in % ([2]; 80 g/ha) [%]	Pre-emergence action against AMARE in % ([2]; 320 g/ha) [%]	Pre-emergence action against AVEFA in % (Avena fatua (AVEFA) [3]) [%]	Pre-emergence action against ECHCG in % ([4]; dosage 80 g/ha) [%]	Pre-emergence action against ECHCG in % ([4]; dosage 320 g/ha) [%]	Pre-emergence action against LOLRI in % (Lolium rigidum (LOLRI) [5]; dosage 320 g/ha) [%]	Pre-emergence action against MATIN in % ([6]; dosage 320 g/ha) [%]	Pre-emergence action against PHBPU in % ([7]; dosage 320 g/ha) [%]	Pre-emergence action against POLCO in % ([8]; dosage 80 g/ha) [%]	Pre-emergence action against POLCO in % ([8]; dosage 320 g/ha) [%]	Pre-emergence action against SETVI in % (Setaria viridis (SETVI) [9]; dosage 320 g/ha) [%]	Pre-emergence action against VIOTR in % (Viola tricolor (VIOTR) [11]; 320 g/ha, Viola tricolor) [%]	Pre-emergence action against ORYSA in % (Oryza sativa (ORYSA) [12]) [%]	Post-emergence action against ALOMY in % ([14]; 80 g/ha) [%]	Post-emergence action against AMARE in % [15, 30] [%]	Post-emergence action against VERPE in % ([21]; 320 g/ha, VERPE) [%]	Post-emergence action against VIOTR in % (Viola tricolor (VIOTR) [22]; 320 g/ha) [%]	Post-emergence action against ORYSA in % (Oryza sativa (ORYSA) [23]; [31]) [%]	also measured
O=C(O)COc1nn(-c2nc(F)ccc2F)c(-c2ccc(F)nc2)c1Cl [Example I-337]	80	90	90	90	90	80	90	100	90	80	80	90	100	100	20	90	80	80	80	20	Pre-emergence action against PHBPU in % ([7]; dosage 80 g/ha): 80%; Pre-emergence action against SETVI in % (Setaria viridis (SETVI) [9]; dosage 80 g/ha): 90%; Pre-emergence action against VERPE in % ([10]; dosage 80 g/ha): 90%; Pre-emergence action against VERPE in % ([10]; dosage 320 g/ha): 90%; Pre-emergence action against VIOTR in % (Viola tricolor (VIOTR) [11]; dosage 80 g/ha): 80%; Post-emergence action against ABUTH in % ([13]; 80 g/ha): 80%; Post-emergence action against ABUTH in % ([13]; 320 g/ha): 80%; Post-emergence action against ALOMY in % ([14]; 320 g/ha): 90%; Post-emergence action against AVEFA in % (Avena fatua (AVEFA) [16]; 320 g/ha): 80%; Post-emergence action against ECHCG in % ([17]; dosage 80 g/ha): 80%; Post-emergence action against ECHCG in % ([17]; dosage 320 g/ha): 90%; Post-emergence action against PHBPU in % ([18]; dosage 80 g/ha): 90%; Post-emergence action against PHBPU in % ([18]; dosage 320 g/ha): 90%; Post-emergence action against POLCO in % ([19]; dosage 80 g/ha): 80%; Post-emergence action against POLCO in % ([19]; dosage 320 g/ha): 80%; Post-emergence action against SETVI in % (Setaria viridis (SETVI) [20]; dosage 320 g/ha): 80%; Post-emergence action against VERPE in % ([21]; dosage 80 g/ha): 80%; Post-emergence action against VIOTR in % (Viola tricolor (VIOTR) [22]; 80 g/ha): 80%; Post-emergence action against ZEAMX in % (Zea mays (ZEAMX) [24]): 10%
COC(=O)CCOC(=O)COc1nn(-c2ccccn2)c(-c2ccc(Cl)nc2)c1Cl [Example I-243]	–	–	80	90	–	–	–	–	–	–	–	–	–	–	–	–	80	80	80	0	Pre-emergence action against DIGSA in % [25]: 80%; Pre-emergence action against ZEAMX in % (Zea mays (ZEAMX) [26]): 10%; Post-emergence action against MATIN in % [27]: 80%; Post-emergence action against ORYSA in % (Oryza sativa (ORYSA) [23]; 320 g/ha, effect in comparison to untreated controls): 10%; Post-emergence action against TRZAS in % [28]: 20%; Post-emergence action against ZEAMX in % (Zea mays (ZEAMX) [24]): 0%
CCOC(=O)C(C)Oc1nn(-c2ccccn2)c(-c2ccc(F)nc2)c1C(F)(F)F (stereo not shown) [Example I-107]	90	90	–	100	80	–	100	100	90	–	–	80	100	100	10	90	–	–	–	10	Pre-emergence action against LOLRI in % (Lolium rigidum (LOLRI) [5]; dosage 80 g/ha): 80%; Post-emergence action against AMARE in % ([15]; 80 g/ha, visual rating about 3 weeks after treatment vs untreated controls (100% = plants have died, 0% = like control plants)): 80%; Post-emergence action against AVEFA in % (Avena fatua (AVEFA) [16]; 80 g/ha): 90%; Post-emergence action against LOLRI in % (Lolium rigidum (LOLRI) [29]; dosage 80 g/ha): 80%; Post-emergence action against SETVI in % (Setaria viridis (SETVI) [20]; dosage 80 g/ha): 80%; Post-emergence action against ORYSA in % (Oryza sativa (ORYSA) [23]; 20 g/ha, effect vs untreated controls): 0%; Post-emergence action against ZEAMX in % (crop plant compatibility) (Zea mays (ZEAMX) [24]; 20 g/ha, ZEAMX, effect in comparison to untreated controls): 20%
CCOC(=O)[C@@H](C)Oc1nn(-c2nc(F)ccc2F)c(-c2ccc(F)nc2)c1Br [Example I-336]	80	100	90	100	90	80	100	100	90	80	80	90	100	100	20	90	80	90	80	20	Pre-emergence action against LOLRI in % (Lolium rigidum (LOLRI) [5]; dosage 80 g/ha): 80%; Pre-emergence action against MATIN in % ([6]; dosage 80 g/ha): 80%; Pre-emergence action against VERPE in % ([10]; dosage 80 g/ha): 80%; Pre-emergence action against VERPE in % ([10]; dosage 320 g/ha): 90%; Pre-emergence action against VIOTR in % (Viola tricolor (VIOTR) [11]; dosage 80 g/ha): 90%; Post-emergence action against ABUTH in % ([13]; 320 g/ha): 80%; Post-emergence action against ALOMY in % ([14]; 320 g/ha): 90%; Post-emergence action against AVEFA in % (Avena fatua (AVEFA) [16]; 80 g/ha): 80%; Post-emergence action against AVEFA in % (Avena fatua (AVEFA) [16]; 320 g/ha): 90%; Post-emergence action against ECHCG in % ([17]; dosage 80 g/ha): 80%; Post-emergence action against ECHCG in % ([17]; dosage 320 g/ha): 80%; Post-emergence action against LOLRI in % (Lolium rigidum (LOLRI) [29]; dosage 80 g/ha): 80%; Post-emergence action against LOLRI in % (Lolium rigidum (LOLRI) [29]; dosage 320 g/ha): 80%; Post-emergence action against PHBPU in % ([18]; dosage 80 g/ha): 90%; Post-emergence action against PHBPU in % ([18]; dosage 320 g/ha): 100%; Post-emergence action against POLCO in % ([19]; dosage 320 g/ha): 80%; Post-emergence action against SETVI in % (Setaria viridis (SETVI) [20]; dosage 320 g/ha): 80%; Post-emergence action against VERPE in % ([21]; dosage 80 g/ha): 80%
